Holding throughout (format): functional
For assay [1], the system named is Staphylococcus aureus. As to the kind of experiment: Antibacterial activity against Staphylococcus aureus ATCC 29213 after 18 hrs by broth dilution method. The conditions noted are these: ATCC 29213, 18 h.
Assay [2] concerns Staphylococcus aureus. As to the kind of experiment: Antibacterial activity against methicillin-resistant Staphylococcus aureus CCARM 3167 after 18 hrs by broth dilution method. Particulars: CCARM 3167, 18 h.
For assay [3], the system named is Staphylococcus aureus. As to the kind of experiment: Antibacterial activity against multidrug-resistant Staphylococcus aureus CCARM 3089 after 18 hrs by broth dilution method. The conditions noted are these: CCARM 3089, 18 h. In general terms: Dilution methods test growth across graded concentrations, often in twofold steps.

In brackets after ≈: the same amount, converted by molar mass.

The text below walks through data of ChEMBL document CHEMBL1649358, “Induced production of bromomethylchlamydosporols A and B from the marine-derived fungus Fusarium tricinctum” (2010).

The term MIC denotes the least concentration at which growth counts as inhibited. A high value points to weaker potency.

In the case of `COc1cc(=O)oc2c1COC(C)(O)[C@H]2C` (mixture of isomers) [CHLAMYDOSPOROL], the figures for the MIC in assay [1], in assay [2] and in assay [3] were 31.5 µg/mL, 31.5 µg/mL and 62.5 µg/mL, respectively.

For the compound `COc1cc(=O)oc2c1CO[C@@](C)(OC)[C@@]2(C)Br` [BROMOMETHYLCHLAMYDOSPOROL A], the MIC in assay [1], in assay [2] and in assay [3] was 15.6 µg/mL (≈ 48.9 µM) in each case.

On to `COc1c2c(oc(=O)c1Br)C(C)(Br)[C@](C)(OC)OC2` (some centres not stated) [BROMOMETHYLCHLAMYDOSPOROL B], for which the MIC in assay [1], in assay [2] and in assay [3] was 15.6 µg/mL (≈ 39.2 µM) each time.

Regarding `C/C=C(\C)[C@H]1[C@@H](/C=C/C=C(\C)[C@@H](O)[C@@H](C)CO)[C@@H]2C[C@@H]3O[C@]3(C)C[C@H]2[C@@H]2O[C@@]21C` [FUSARIELIN A], the MIC was 31.5 µg/mL (≈ 78.2 µM) in assay [1], 31.5 µg/mL (≈ 78.2 µM) in assay [2] and 62.5 µg/mL (≈ 155 µM) in assay [3].
